Data taken from patent US10898469B2, “Imidazolylamide derivative” (Sumitomo Dainippon Pharma Co., Ltd., priority 2016, dated 2021).
pIC50: −log10 of the molar value.

Assays:
Format in all cases: cell-based, human
[1] = tested on: HT-29 cells; assay: Inhibition test for sphere-forming ability of cancer cells in the presence of BSA (Test Example 2), HT-29; conditions: in the presence of 5% BSA, cultured 4 days
Procedure: (§1) Human colorectal cancer-derived HCT-116 cells, human colon-adenocarcinoma-derived HT-29 cells, and human pharyngeal cancer-derived FaDu cells were available from American Type Culture Collection (ATCC). HCT-116 cells and HT-29 cells were cultured at 37° C. under 5% CO2 using the McCoy's 5a medium containing 10% fetal bovine serum (FBS) and 1% penicillin/streptomycin, and FaDu cells were cultured at 37° C. under 5% CO2 using the MEM medium containing 10% FBS, 1% non-essential amino acid, 1% sodium pyruvate, 5% bovine serum albumin (BSA), and 1% penicillin/streptomycin. HCT-116 cells, HT-29 cells, and FaDu cells were seeded in a 384 Well Black Clear Bottom Ultra-Low Attachment Microplate (Corning Cat. No. 3827) in an amount of 350-800 cells/well using the DMEM/F12 medium containing 2% B27 supplement (GIBCO), 20 ng/mL epidermal growth factor (EGF) (peprotech), 10 ng/mL basic fibroblast growth factor (bFGF) (peprotech), 5 μg/mL insulin (Sigma), 5% bovine serum albumin (BSA), and 1% penicillin/streptomycin. Each test compound was added into each well to adjust the final concentration of DMSO to 0.1%, and the cells were cultured for 4 days. The number of viable cells in each well was then measured with CellTiter-Glo® Luminescent Cell Viability Assay (Promega) to calculate the concentration of each test compound for 50% inhibition of cell proliferation (Sphere IC50 value; μmol/L).
(§2) The experiment of Test Example 2 was performed for each compound of each Example.
(§3) The concentration of each test compound for 50% inhibition of cell proliferation (Sphere IC50 value; μmol/L) is shown in the following Table.

[2] = tested on: FaDu cells; assay: Inhibition test for sphere-forming ability of cancer cells (Test Example 1), FaDu; conditions: Homo sapiens, concentration for 50% inhibition of cell proliferation, read-out: IC50 (μmol/L) FaDu (Sphere IC50 value)
Procedure, shortened: (§4)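 Cells were seeded at 350-800 cells/well in ultra-low-attachment plates in serum-free DMEM/F12 with 2% B27, 20 ng/mL EGF, 10 ng/mL bFGF and 5 μg/mL insulin. Compounds were added at 0.1% final DMSO for 4 days. Viable cells were read by CellTiter-Glo luminescence to give Sphere IC50 (μmol/L).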

[3] = tested on: FaDu cells; assay: Inhibition test for sphere-forming ability of cancer cells in the presence of BSA (Test Example 2), FaDu; conditions: Homo sapiens, 96 h, in the presence of 5% BSA, cultured 4 days
Procedure: as §1, §2, §3

[4] = tested on: HCT-116 cells; assay: Inhibition test for sphere-forming ability of cancer cells (Test Example 1), HCT-116; conditions: for pIC50: HCT-116 cells, concentration for 50% inhibition of cell proliferation, read-out: IC50 (μmol/L) HCT-116 (Sphere IC50 value); for inhibitory effect on the sphere-forming ability of cancer cells: Test Example 1, summary in words, cell line not given (HCT-116, HT-29, FaDu tested)
Procedure, shortened: as §4

[5] = tested on: HT-29 cells; assay: Inhibition test for sphere-forming ability of cancer cells (Test Example 1), HT-29; conditions: concentration for 50% inhibition of cell proliferation, read-out: IC50 (μmol/L) HT-29 (Sphere IC50 value)
Procedure, shortened: as §4

[6] = tested on: HCT-116 cells; assay: Inhibition test for sphere-forming ability of cancer cells in the presence of BSA (Test Example 2), HCT-116; conditions: for pIC50: HCT-116 cells, in the presence of 5% BSA, cultured 4 days; for inhibitory effect on the sphere-forming ability of cancer cells: Test Example 2, in the presence of 5% BSA, summary in words, cell line not given (HCT-116, HT-29, FaDu tested)
Procedure: as §1, §2, §3

Compound	pIC50 ([1]; Homo sapiens, 96 h)	pIC50 [2]	pIC50 [3]	pIC50 ([4]; Homo sapiens)	pIC50 ([5]; Homo sapiens)	pIC50 ([6]; Homo sapiens, HCT-116, 96 h)	pIC50 [1]	pIC50 [4]	inhibitory effect on the sphere-forming ability of cancer cells [4]	pIC50 [5]	pIC50 [6]	inhibitory effect on the sphere-forming ability of cancer cells [6]
COc1ccc(NC(=O)c2cn(Cc3cc(F)c(F)c(F)c3)cn2)cc1OC [Example 251, N-(3,4-Dimethoxyphenyl)-1-(3,4,5-trifluorobenzyl)-1H-imidazole-4-carboxamide]	6.22	6.37	6.26	6.68	6.27	6.11	–	–	–	–	–	–
COc1ccc(C(=O)Nc2cn(Cc3cccc(Cl)c3)cn2)cc1OC [Example 141, N-[1-(3-chlorobenzyl)-1H-imidazol-4-yl]-3,4-dimethoxybenzamide]	6.19	6.07	6.26	6.20	6.28	5.31	–	–	–	–	–	–
O=C(Nc1cn(Cc2cccc(Cl)c2)cn1)c1cnc2ccccc2c1 [Example 138]	–	–	–	–	–	–	5.21	7.00	particularly potent inhibitory effect	6.70	< 5.00	–
O=C(Nc1cccnc1)c1cn(Cc2cccc(Cl)c2)cn1 [Example 264]	–	–	–	–	–	–	5.20	5.07	–	5.22	< 5.00	–
O=C(Nc1cn(Cc2cccc(C(F)(F)F)c2)cn1)c1ccc(NCCO)nc1 [Example 248, 6-[(2-Hydroxyethyl)amino]-N-{1-[3-(trifluoromethyl)benzyl]-1H-imidazol-4-yl}nicotinamide]	5.29	–	–	6.00	6.08	5.19	–	–	–	–	–	–
O=C(Nc1cn(Cc2cccc(C(F)(F)F)c2)cn1)c1ccc2cnccc2c1 [Example 186]	–	–	–	–	–	–	7.00	7.10	particularly potent inhibitory effect	7.30	6.25	particularly potent inhibitory effect
O=C(Nc1cn(Cc2cccc(C(F)(F)F)c2)cn1)c1ccc2ncccc2c1 [Example 183]	–	–	–	–	–	–	5.19	6.03	–	6.54	< 5.00	–
COC(=O)c1ccc(OCC(=O)Nc2cn(Cc3cc(F)c(F)c(F)c3)cn2)cn1 [Example 132, Methyl 5-(2-oxo-2-{[1-(3,4,5-trifluorobenzyl)-1H-imidazol-4-yl]amino}ethoxy)picolinate]	5.19	–	–	5.09	5.20	< 5.00	–	–	–	–	–	–
Cc1ccc2cc(NC(=O)c3cn(Cc4cccc(Cl)c4)cn3)ccc2n1 [Example 255, 1-(3-Chlorobenzyl)-N-(2-methylquinolin-6-yl)-1H-imidazole-4-carboxamide]	6.41	–	–	7.22	> 8.00	6.20	–	–	particularly potent inhibitory effect	–	–	–
O=C(Nc1cn(Cc2cccc(C(F)(F)F)c2)cn1)c1cncnc1 [Example 180]	–	–	–	–	–	–	5.31	5.06	–	6.12	< 5.00	–
COc1cc(C(=O)Nc2cn(Cc3cccc(C(F)(F)F)c3)cn2)cnc1Cl [Example 228]	–	–	–	–	–	–	5.31	5.19	–	5.38	< 5.00	–
O=C(Nc1cn(Cc2cccc(C(F)(F)F)c2)cn1)c1ccc2cnccc2n1 [Example 193]	–	–	–	–	–	–	6.21	7.15	particularly potent inhibitory effect	7.22	6.22	–
CC(=O)Nc1ccc(/C=C/C(=O)Nc2cn(Cc3cccc(C(F)(F)F)c3)cn2)nc1 [Example 230]	5.23	–	–	5.22	6.03	< 5.00	–	–	–	–	–	–
COC(=O)c1ccc(/C=C/C(=O)Nc2cn(Cc3cccc(C(F)(F)F)c3)cn2)cn1 [Example 131, Methyl 5-[(1E)-3-oxo-3-({1-[3-(trifluoromethyl)benzyl]-1H-imidazol-4-yl}amino)prop-1-en-1-yl]picolinate]	6.27	–	–	< 5.00	5.06	5.04	–	–	–	–	–	–
O=C(Nc1cn(Cc2cccc(C(F)(F)F)c2)cn1)c1ccc(NCC(F)(F)F)nc1 [Example 249]	6.31	–	–	6.31	6.54	5.62	–	–	–	–	–	–
O=C(Nc1cn(Cc2cccc(C(F)(F)F)c2)cn1)c1ccncn1 [Example 179]	–	–	–	–	–	–	5.24	5.54	–	5.33	5.22	–
O=C(/C=C/c1cccnc1)Nc1cn(Cc2cc(F)c(F)c(F)c2)cn1 [Example 231]	6.28	–	–	6.25	7.15	6.15	–	–	particularly potent inhibitory effect	–	–	–
COc1ccc(C(=O)Nc2cn(Cc3cccc(Cl)c3)c(C)n2)cc1OC [Example 102]	5.22	–	–	5.10	5.39	< 5.00	–	–	–	–	–	–
Cc1ccc2cc(NC(=O)c3cn(Cc4cc(F)c(F)c(F)c4)cn3)ccc2n1 [Example 252]	–	–	–	–	–	–	7.30	7.52	particularly potent inhibitory effect	> 8.00	7.10	particularly potent inhibitory effect
O=C(Nc1cn(Cc2cc(F)c(F)c(F)c2)cn1)c1ccc2cnccc2c1 [Example 190]	–	–	–	–	–	–	7.22	7.22	particularly potent inhibitory effect	7.22	6.57	–
COc1ccc(/C=C/C(=O)Nc2cn(Cc3cccc(Cl)c3)cn2)cc1OCCO [Example 33, (2E)-N-[1-(3-chlorobenzyl)-1H-imidazol-4-yl]-3-[3-(2-hydroxyethoxy)-4-methoxyphenyl]prop-2-enamide]	–	> 8.00	–	7.22	8.00	6.23	–	–	particularly potent inhibitory effect	–	–	particularly potent inhibitory effect
O=C(Nc1cn(Cc2cccc(Cl)c2)cn1)c1ccc2cnccc2c1 [Example 191]	–	–	–	–	–	–	6.28	6.51	particularly potent inhibitory effect	7.05	6.16	–
O=C(Nc1cn(Cc2cccc(Cl)c2)cn1)c1ccc2ncccc2c1 [Example 137]	–	–	–	–	–	–	5.21	6.09	–	6.24	< 5.00	–
O=C(Nc1cn(Cc2cccc(C(F)(F)F)c2)cn1)c1cnc2ncccc2c1 [Example 188]	–	–	–	–	–	–	6.07	6.14	–	6.20	5.26	–
C=Cc1ncc(C(=O)Nc2cn(Cc3cccc(C(F)(F)F)c3)cn2)cc1OC [Example 100]	5.20	–	–	5.18	5.71	5.08	–	–	–	–	–	–
COc1ccc(NC(=O)c2cn(Cc3cccc(Cl)c3)cn2)cc1OC [Example 262]	–	–	–	–	–	–	6.14	6.08	–	6.22	5.22	–
O=C(Nc1cn(Cc2cccc(C(F)(F)F)c2)cn1)c1cnc2cnccc2c1 [Example 192]	–	–	–	–	–	–	7.15	7.30	particularly potent inhibitory effect	> 8.00	7.15	particularly potent inhibitory effect
O=C(Nc1cn(Cc2cccc(C(F)(F)F)c2)cn1)c1cnc2ccccc2c1 [Example 181]	–	–	–	–	–	–	5.48	6.11	–	6.72	5.10	–
O=C(Nc1ccc(CO)cc1)c1cn(Cc2cc(F)c(F)c(F)c2)cn1 [Example 253]	–	–	–	–	–	–	7.15	7.15	particularly potent inhibitory effect	7.10	6.24	particularly potent inhibitory effect
